Results: patent publication US20230059136A1, “THE COMPOUNDS AND COMPOSITIONS FOR TREATING CONDITIONS ASSOCIATED WITH NLRP ACTIVITY” (Novartis AG, priority 2018, published 2023)

These molecules were tested on IL-1β production in PMA-differentiated THP-1 cells (assay: IL-1β production in PMA-differentiated THP-1 cells stimulated with gramicidin (hTHP-1 assay containing 2% fetal bovine serum)). Settings: Table B1; 2% fetal bovine serum; class symbols; read-out: hTHP-1 IC50 (Average IC50 of compounds in hTHP-1 assay).
Type: cell-based, human
Procedure: Procedure 1: IL-1β Production in PMA-Differentiated THP-1 Cells Stimulated with Gramicidin.
THP-1 cells were purchased from the American Type Culture Collection and sub-cultured according to instructions from the supplier. Cells were cultured in complete RPMI 1640 (containing 10% heat inactivated FBS, penicillin (100 units/ml) and streptomycin (100 μg/ml)), and maintained in log phase prior to experimental setup. Prior to the experiment, compounds were dissolved in dimethyl sulfoxide (DMSO) to generate a 30 mM stock. The compound stock was first pre-diluted in DMSO to 3, 0.34, 0.042 and 0.0083 mM intermediate concentrations and subsequently spotted using Echo550 liquid handler into an empty 384-well assay plate to achieve desired final concentration (e.g. 100, 33, 11, 3.7, 1.2, 0.41, 0.14, 0.046, 0.015, 0.0051, 0.0017 μM). DMSO was backfilled in the plate to achieve a final DMSO assay concentration of 0.37%. The plate was then sealed and stored at room temperature until required.
THP-1 cells were treated with PMA (Phorbol 12-myristate 13-acetate) (20 ng/ml) for 16-18 hours. On the day of the experiment the media was removed and adherent cells were detached with trypsin for 5 minutes. Cells were then harvested, washed with complete RPMI 1640, spun down, and resuspended in RPMI 1640 (containing 2% heat inactivated FBS, penicillin (100 units/ml) and streptomycin (100 μg/ml). The cells were plated in the 384-well assay plate containing the spotted compounds at a density of 50,000 cells/well (final assay volume 50 μl). Cells were incubated with compounds for 1 hour and then stimulated with gramicidin (5 μM) (Enzo) for 2 hours. Plates were then centrifuged at 340 g for 5 min. Cell free supernatant (40 μL) was collected using a 96-channel PlateMaster (Gilson) and the production of IL-1β was evaluated by HTRF (cisbio). The plates were incubated for 18 h at 4° C. and read using the preset HTRF program (donor emission at 620 nm, acceptor emission at 668 nm) of the SpectraMax i3x spectrophotometer (Molecular Devices, software SoftMax 6). A vehicle only control and a dose titration of CRID3 (100-0.0017 μM) were run concurrently with each experiment.
Procedure 2: IL-1β Production in PMA-Differentiated THP-1 Cells Stimulated with Gramicidin.
THP-1 cells were purchased from the American Type Culture Collection and sub-cultured according to instructions from the supplier. Prior to experiments, cells were cultured in complete RPMI 1640 (containing 10% heat inactivated FBS, penicillin (100 units/ml) and streptomycin (100 μg/ml)), and maintained in log phase prior to experimental setup. Prior to the experiment THP-1 were treated with PMA (Phorbol 12-myristate 13-acetate) (20 ng/ml) for 16-18 hours. Compounds were dissolved in dimethyl sulfoxide (DMSO) to generate a 30 mM stock. On the day of the experiment the media was removed and adherent cells were detached with trypsin for 5 minutes. Cells were then harvested, washed with complete RPMI 1640, spun down, resuspended in RPMI 1640 (containing 2% heat inactivated FBS, penicillin (100 units/ml) and streptomycin (100 μg/ml). The cells were plated in a 384-well plate at a density of 50,000 cells/well (final assay volume 50 μl). Compounds were first dissolved in assay medium to obtain a 5× top concentration of 500 μM. 10 step dilutions (1:3) were then undertaken in assay medium containing 1.67% DMSO. 5× compound solutions were added to the culture medium to achieve desired final concentration (e.g. 100, 33, 11, 3.7, 1.2, 0.41, 0.14, 0.046, 0.015, 0.0051, 0.0017 μM). Final DMSO concentration was at 0.37%. Cells were incubated with compounds for 1 hour and then stimulated with gramicidin (5 μM) (Enzo) for 2 hours. Plates were then centrifuged at 340 g for 5 min. Cell free supernatant (40 μL) was collected using a 96-channel PlateMaster (Gilson) and the production of IL-1β was evaluated by HTRF (cisbio). A vehicle only control and a dose titration of CRID3 (100-0.0017 μM) were run concurrently with each experiment. […]

Row | SMILES | IC50 [nM]
1 | CC(C)c1cc(C#N)cc(C(C)C)c1CC(=O)N=S(N)(=O)c1ncc(C(C)(C)O)s1 (single isomer, unassigned) [Example 82, (R)- or (S)-2-(4-cyano-2,6-diisopropylphenyl)-N-(5-(2-hydroxypropan-2-yl)thiazol-2-ylsulfonimidoyl)acetamide] | 5000 to 30000
2 | Cc1nc(C(C)(C)O)sc1S(N)(=O)=NC(=O)Cc1c(C(C)C)cc(OC(F)F)cc1C(C)C (single isomer, unassigned) [Example 85, (R)- or (S)-2-(4-(difluoromethoxy)-2,6-diisopropylphenyl)-N-(2-(2-hydroxypropan-2-yl)-4-methylthiazol-5-ylsulfonimidoyl)acetamide] | 5000 to 30000
3 | CC(C)c1cc(C(F)F)cc(C(C)C)c1CC(=O)N=S(N)(=O)c1ccc(C(C)(C)O)cc1F (single isomer, unassigned) [Example 86, (S)- or (R)-2-(4-(difluoromethyl)-2,6-diisopropylphenyl)-N-(2-fluoro-4-(2-hydroxypropan-2-yl)phenylsulfonimidoyl) acetamide] | 1000 to 5000
4 | COCc1cc(C(C)C)c(CC(=O)N=S(N)(=O)c2cc(C(C)(C)O)cs2)c(C(C)C)c1 (single isomer, unassigned) [Example 158, (S) or (R)-N-(amino(4-(2-hydroxypropan-2-yl)thiophen-2-yl)(oxo)-λ^6-sulfaneylidene)-2-(2,6-diisopropyl-4-(methoxymethyl)phenyl)acetamide] | 1000 to 5000
5 | CC(C)c1ccc(F)c(C(C)C)c1CC(=O)N=S(N)(=O)c1cnc(C(C)(C)O)s1 (single isomer, unassigned) [Example 162, (S) or (R)-N-(amino(2-(2-hydroxypropan-2-yl)thiazol-5-yl)(oxo)-λ^6-sulfaneylidene)-2-(3-fluoro-2,6-diisopropylphenyl) acetamide] | 5000 to 30000
6 | CC(C)c1cc(-c2ccc3ccccc3c2)cc(C(C)C)c1CC(=O)N=S(N)(=O)c1cnc(C(C)(C)O)s1 (single isomer, unassigned) [Example 164, (S) or (R)-N-(amino(2-(2-hydroxypropan-2-yl)thiazol-5-yl)(oxo)-λ^6-sulfaneylidene)-2-(2,6-diisopropyl-4-(naphthalen-2-yl)phenyl) acetamide] | 1000 to 5000
7 | CC(C)c1cc(-c2ccc3c(c2)OC(F)(F)O3)cc(C(C)C)c1CC(=O)N=S(N)(=O)c1ncc(C(C)(C)O)s1 (single isomer, unassigned) [Example 165, (S) or (R)-N-(amino(5-(2-hydroxypropan-2-yl)thiazol-2-yl)(oxo)-λ^6-sulfaneylidene)-2-(4-(2,2-difluorobenzo[d] [1,3]dioxol-5-yl)-2,6-diisopropylphenyl) acetamide] | 1000 to 5000
8 | Cc1ccc(-c2cc(C(C)C)c(CC(=O)N=S(N)(=O)c3ncc(C(C)(C)O)s3)c(C(C)C)c2)cc1C (single isomer, unassigned) [Example 167, (S) or (R)-N-(amino(5-(2-hydroxypropan-2-yl)thiazol-2-yl)(oxo)-λ^6-sulfaneylidene)-2-(3,5-diisopropyl-3′,4′-dimethyl-[1,1′-biphenyl]-4-yl)acetamide] | 1000 to 5000

Other lines, results leading:

Row | IC50 [nM] | SMILES
9 | 200 to 1000 | CC(C)c1cc(C(F)F)cc(C(C)C)c1CC(=O)N=S(N)(=O)c1sc(C(C)(C)O)cc1F (single isomer, unassigned) [Example 81, (R)- or (S)-2-(4-(difluoromethyl)-2,6-diisopropylphenyl)-N-(3-fluoro-5-(2-hydroxypropan-2-yl)thiophen-2-ylsulfonimidoyl)acetamide]
10 | 40 to 200 | CC(C)c1cc(C#N)cc(C(C)C)c1CC(=O)N=S(N)(=O)c1ncc(C(C)(C)O)s1 (single isomer, unassigned) [Example 83, (S)- or (R)-2-(4-cyano-2,6-diisopropylphenyl)-N-(5-(2-hydroxypropan-2-yl)thiazol-2-ylsulfonimidoyl)acetamide]
11 | 40 to 200 | Cc1nc(C(C)(C)O)sc1S(N)(=O)=NC(=O)Cc1c(C(C)C)cc(OC(F)F)cc1C(C)C (single isomer, unassigned) [Example 84, (S)- or (R)-2-(4-(difluoromethoxy)-2,6-diisopropylphenyl)-N-(2-(2-hydroxypropan-2-yl)-4-methylthiazol-5-ylsulfonimidoyl)acetamide]
12 | 40 to 200 | CC(C)c1cc(C(F)F)cc(C(C)C)c1CC(=O)N=S(N)(=O)c1ccc(C(C)(C)O)cc1F (single isomer, unassigned) [Example 87, (R)- or (S)-2-(4-(difluoromethyl)-2,6-diisopropylphenyl)-N-(2-fluoro-4-(2-hydroxypropan-2-yl)phenylsulfonimidoyl) acetamide]
13 | 8 to 40 | COCc1cc(C(C)C)c(CC(=O)N=S(N)(=O)c2cc(C(C)(C)O)cs2)c(C(C)C)c1 (single isomer, unassigned) [Example 157, (R) or (S)-N-(amino(4-(2-hydroxypropan-2-yl)thiophen-2-yl)(oxo)-λ^6-sulfaneylidene)-2-(2,6-diisopropyl-4-(methoxymethyl)phenyl)acetamide]
14 | 40 to 200 | CC(C)c1ccc(F)c(C(C)C)c1CC(=O)N=S(N)(=O)c1cc(C(C)(C)O)cs1 (single isomer, unassigned) [Example 159, (R) or (S)-N-(amino(4-(2-hydroxypropan-2-yl)thiophen-2-yl)(oxo)-λ^6-sulfaneylidene)-2-(3-fluoro-2,6-diisopropylphenyl) acetamide]
15 | 200 to 1000 | CC(C)c1ccc(F)c(C(C)C)c1CC(=O)N=S(N)(=O)c1cc(C(C)(C)O)cs1 (single isomer, unassigned) [Example 160, (S) or (R)-N-(amino(4-(2-hydroxypropan-2-yl)thiophen-2-yl)(oxo)-λ^6-sulfaneylidene)-2-(3-fluoro-2,6-diisopropylphenyl) acetamide]
16 | 40 to 200 | CC(C)c1ccc(F)c(C(C)C)c1CC(=O)N=S(N)(=O)c1cnc(C(C)(C)O)s1 (single isomer, unassigned) [Example 161, (R) or (S)-N-(amino(2-(2-hydroxypropan-2-yl)thiazol-5-yl)(oxo)-λ^6-sulfaneylidene)-2-(3-fluoro-2,6-diisopropylphenyl) acetamide]
17 | 40 to 200 | CC(C)c1cc(-c2ccc3ccccc3c2)cc(C(C)C)c1CC(=O)N=S(N)(=O)c1cnc(C(C)(C)O)s1 (single isomer, unassigned) [Example 163, (R) or (S)-N-(amino(2-(2-hydroxypropan-2-yl)thiazol-5-yl)(oxo)-λ^6-sulfaneylidene)-2-(2,6-diisopropyl-4-(naphthalen-2-yl)phenyl) acetamide]
18 | 40 to 200 | CC(C)c1cc(-c2ccc3c(c2)OC(F)(F)O3)cc(C(C)C)c1CC(=O)N=S(N)(=O)c1ncc(C(C)(C)O)s1 (single isomer, unassigned) [Example 166, (R) or (S)-N-(amino(5-(2-hydroxypropan-2-yl)thiazol-2-yl)(oxo)-λ^6-sulfaneylidene)-2-(4-(2,2-difluorobenzo[d] [1,3]dioxol-5-yl)-2,6-diisopropylphenyl) acetamide]
19 | 200 to 1000 | Cc1ccc(-c2cc(C(C)C)c(CC(=O)N=S(N)(=O)c3ncc(C(C)(C)O)s3)c(C(C)C)c2)cc1C (single isomer, unassigned) [Example 168, (R) or (S)-N-(amino(5-(2-hydroxypropan-2-yl)thiazol-2-yl)(oxo)-λ^6-sulfaneylidene)-2-(3,5-diisopropyl-3′,4'-dimethyl-[1,1′-biphenyl]-4-yl)acetamide]
